Patent US20230312473A1, “PROCESS FOR THE PREPARATION OF BIHETEROARYL COMPOUNDS AND CRYSTAL FORMS THEREOF” (Genentech, Inc., priority 2020, published 2023)

Columns and labels:
Assay type in all cases: physicochemical
[1] = Solubility of compound (1) in solvents at 0° C. and the respective maximum process temperature; conditions: for Solubility at max temp / Solubility at 0° C.: Form A
Text: Prior art processes for preparing compound (1) used isopropyl acetate for final crystallization, having a yield of 84% at a relatively low concentration of 3.0%-w/w. […] It was known from previous qualitative experimental data as well as solubility prediction (numerical simulation) that the possible list is reduced since the solubility of GDC-0134 in alcohols is too low. From a process design perspective, a simple cooling crystallization is preferred over other designs like antisolvent or evaporative crystallization especially because of easier process control. […] Mainly esters but also acetonitrile, methyl isobutyl ketone (MIBK), and 2-MeTHF were on the shortlist for precise solubility determination. The solubility of compound (1) in these solvents is Table 5 for 0° C. and the respective maximum process temperatures. […] While the solubility in acetonitrile is very low even for high temperatures, mixtures of 2-MeTHF and acetonitrile show a synergistic effect at least for a 1:1 mixture. The solubility at 70° C. is the highest among the investigated systems, and the theoretical yield is close to 90%. Due to concerns with regard to the efficient removal of acetonitrile to acceptable levels after drying, 2-MeTHF/acetonitrile-mixtures were not further investigated, though. MIBK offered the highest theoretical yield plus a significant increase in concentration compared to iPrOAc and it was selected for a more detailed investigation

[2] = Mechanical stress evaluation: crystallinity by XRPD
Description: (§1) Compound 1, produced generally according to the method of Example 5, was evaluated for changes induced mechanical stress conditions, where crystallinity was evaluated by XRPD and where thermoanalytic characteristics were measured by differential scanning calorimetry (“DSC”), thermogravimetric analysis (“TGA”) and dynamic vapor sorption (“DVS”).
In a first evaluation, compound 1 was micronized by jet milling and evaluated by XRPD and DSC.
(§2) About 500 mg of compound 1 was dry grinded for about 5 minutes at ambient conditions with a mortar and pestle in order to simulate shear stresses encountered during a dry granulation. […] Furthermore, thermoanalytic data as measured by DSC, TGA, and DVS was only marginally different from compound 1 starting material (see Table 12 below).
(§3) The effect of pressure on compound 1 was performed to investigate whether phase transformation could occur during tableting. The conditions were 1.8 T/5 mm compact, 900 MPa, about 30 mg of compound 1, and a dwell time of about 6 seconds). The tablets were analyzed without further treatment and after gentle crushing of the tablets with a pestle. […] FIG. 2 pattern (b) is the XRPD pattern for crushed tablets. FIG. 2 pattern (c) is the XRPD pattern for tablets that were not crushed.
(§4) To simulate wet milling, wet manual grinding experiments were done. About 500 mg of compound 1 and about 0.5 mL water were kneaded for about 5 minutes with a mortar and pestle. About 100 mg of the wet material was analyzed by XRPD. The remainder of the material was dried overnight in an oven at 50° C. and ambient pressure. The dried material was analyzed by […], DSC, TGA, and DVS.

[3] = Mechanical stress evaluation: thermogravimetric analysis (TGA)
Description: as §1, §2, §3, §4

[4] = Mechanical stress evaluation: dynamic vapor sorption (DVS)
Description: as §1, §2, §3, §4

[5] = after Dry Granulation (dry grinding about 5 minutes, mortar and pestle)
[6] = after Wet Granulation (wet manual grinding with water, dried at 50° C.)
[7] = untreated compound 1 starting material

Nc1ncc(-c2cc(N3C[C@@H]4C[C@H]3CO4)nc(N3CCC(F)(F)C3)n2)cc1OC(F)F [Compound 1, 5-(6-((1S,4S)-2-oxa-5-azabicyclo[2.2.1]heptan-5-yl)-2-(3,3-difluoropyrrolidin-1-yl)pyrimidin-4-yl)-3-(difluoromethoxy)pyridin-2-amine]
solubility in alcohols ([1]; previous qualitative experimental data and solubility prediction): too low | Solubility at max temp ([1]; solvent: 2-MeTHF:MeCN (1:1), 70 ° C.): 7.3 w/w % | Solubility at 0° C. ([1]; solvent: 2-MeTHF:MeCN (1:1)): 0.8 w/w % | Solubility at max temp ([1]; solvent: 2-MeTHF:MeCN (3:1), 70 ° C.): 2.2 w/w % | Solubility at 0° C. ([1]; solvent: 2-MeTHF:MeCN (3:1)): 1.7 w/w % | Solubility at max temp ([1]; solvent: 2-MeTHF, 70 ° C.): 5.2 w/w % | Solubility at 0° C. ([1]; solvent: 2-MeTHF): 1.6 w/w % | Solubility at max temp ([1]; solvent: Acetonitrile, 70 ° C.): 1.4 w/w % | Solubility at 0° C. ([1]; solvent: Acetonitrile): 0.5 w/w % | Solubility at max temp ([1]; solvent: Ethylacetate, 70 ° C.): 4.8 w/w % | Solubility at 0° C. ([1]; solvent: Ethylacetate): 0.9 w/w % | Solubility at max temp ([1]; solvent: MIBK, 80 ° C.): 5.2 w/w % | Solubility at 0° C. ([1]; solvent: MIBK): 0.4 w/w % | Solubility at max temp ([1]; solvent: Methylacetate, 50 ° C.): 4.9 w/w % | Solubility at 0° C. ([1]; solvent: Methylacetate): 1.3 w/w % | Solubility at max temp ([1]; solvent: i-propyl acetate, 80 ° C.): 4.2 w/w % | Solubility at 0° C. ([1]; solvent: i-propyl acetate): 0.4 w/w % | Solubility at max temp ([1]; solvent: n-propyl acetate, 80 ° C.): 4.3 w/w % | Solubility at 0° C. ([1]; solvent: n-propyl acetate): 0.8 w/w % | crystallinity by XRPD ([2]; after manual wet milling and after hot drying of wet milled material): No reduction in the crystallinity | crystallinity by XRPD ([2]; dry grinded about 5 minutes with mortar and pestle (simulated dry granulation)): No reduction of crystallinity | influence on crystallinity ([2]; micronized by jet milling): no significant influence on crystallinity | crystallinity by XRPD ([2]; tableting, 900 MPa, dwell about 6 seconds, with and without crushing of the tablets): some reduction of crystallinity | TGA Total wt. loss [3, 5]: 0.2% m/m | TGA Total wt. loss ([3]; after Tableting (900 MPa)): 0.3% m/m | TGA Total wt. loss ([3]; after Tableting (crushing)): 0.3% m/m | TGA Total wt. loss [3, 6]: 0.2% m/m | TGA Total wt. loss [3, 7]: 0.1% m/m | DVS Δm (0-90% RH) [4, 5]: 0.1% m/m | DVS Δm (0-90% RH) ([4]; after Tableting (900 MPa)): <0.1% m/m | DVS Δm (0-90% RH) ([4]; after Tableting (crushing)): 0.1% m/m | DVS Δm (0-90% RH) [4, 6]: <0.1% m/m | hygroscopicity by DVS ([4]; compacted (tableted) samples versus starting material): did not show a significant increase of hygroscopicity | DVS Δm (0-90% RH) [4, 7]: <0.1% m/m
